Source: patent publication US9656945B2, “3-acyl-ingenols II” (LEO LABORATORIES LIMITED, priority 2010, dated 2017)
Read-outs that look alike come from different tables or passages of the source.

Columns and labels:
Format in all cases: cell-based
[1] = tested on: HeLa cells (ATCC CCL-002); assay: Necrosis assay; settings: Homo sapiens, 0.5 h, read-out: HeLa necrosis EC50 range
Method: HeLa cells (ATCC CCL-002) were grown in minimal essential medium (Invitrogen catalog no. 42360) containing 10% fetal bovine serum, 100 IU/ml penicillin and 100 μg/ml streptomycin. 4,000-6,000 cells were seeded into 96-well black ViewPlates-plates, clear bottom, (Perkin Elmer) in 100 μl medium and incubated overnight. Compounds were dissolved and pre-diluted in DMSO in 96-well polypropylene plates (Greiner) in a concentration range of 15 μM to 600 μM. At the time of the experiment cell plates were placed on heating blocks at 37° C., medium was removed and 40 μl fresh, pre-warmed medium was added per well. Cells were incubated for 15 min before addition of compounds. In parallel, 3 μl of compounds were diluted with 197 μl growth medium on a Tecan freedom-EVO pipetting station using 250 μl/s pipetting speed, in order to ensure effective mixing of the highly concentrated compound solutions with the aqueous phase. These pre-dilution plates were then equilibrated on heating blocks at 37° C. for 10 min. 80 μl pre-diluted compound were transferred manually to the corresponding wells containing HeLa cells yielding compound concentrations of 10 μM to 400 μM. Control conditions were 1% DMSO in growth medium (100% viability) and 400 μM ingenol mebutate in growth medium (0% viability). Plates were incubated on the heating blocks at 37° C. for 30 min. At the end of the incubation 10 μl PrestoBlue reagent (Invitrogen) were added to each well, plates were sealed with black seal, followed by incubation at 37° C. for 10 min with gentle shaking (150 rpm). Subsequently, plates were placed at room temperature for 20-30 min. Plates were read immediately after on an Envision Fluorescence reader (Perkin Elmer) with excitation at 535 nm and emission at 630 nm. Test compound titration curves were fitted to a four-parameter sigmoidal curve after normalizing the effect of the test compound to the effect of the positive control (4 10^−4 M PEP0005/ingenol mebutate). AbsEC50 denotes the concentration of test compound producing 50% effect.

[2] = tested on: Primary human epidermal keratinocytes, HeKa; assay: HeKa cytokine release (IL-8) assay
Method: Primary human epidermal keratinocytes, HeKa, were seeded (10.000 cells/well) in 96-well plates the day before the assay. Test compounds were diluted in DMSO (dimethyl sulfoxide) and further diluted in assay medium and pipetted into wells of 96 well-plates containing HeKa cells. The plates were incubated for 6 h at 37° C. in humidified air with 5% CO2. Plates are centrifuged briefly to spin down cells at 4° C., the supernatant was removed and analysed by Meso Scale Discovery (MSD) 4-spot cytokine assay (Pro-inflammatory II Ultra Sensitive kit, MSD, MD, USA). The MSD assay employs a sandwich immunoassay format where capture antibodies were coated in a patterned array on the bottom of the wells of a 4-Spot-Multi-MSD plate. Standard samples were incubated in the MULTI-SPOT plates as well, and the cytokine (IL-8) binds to its corresponding capture antibody spot. The cytokine level was quantitated on a SECTOR™ Imager using a cytokine-specific Detection Antibody labelled with MSD SULFO-TAG™ reagent.
(§1) Test compound titration curves were fitted to a four-parameter sigmoidal curve after normalizing the effect of the test compound to the effect of the positive control (1.5×10^−7 M PEP0005). Rel EC50 denotes the concentration of test compound producing an effect that is midway between the fitted top and bottom.

[3] = tested on: PMN's (polymorphonuclear leukocytes); assay: Neutrophil oxidative burst assay; settings: Leukocyte, 40 min, read-out: Neutrophil oxidative burst Rel EC50 range
Method: PMN's (polymorphonuclear leukocytes) were isolated and purified from fresh buffy coats by sequential sedimentation, density centrifugation and lysis of contaminating erythrocytes. Buffy coats were incubated with 2% methocel for 30-45 min to differentially sediment red blood cells. The leukocyte-rich supernatant was transferred to lymphoprep tubes to remove mononuclear cells by density centrifugation (400×g, 30 min). The pellet was resuspended and any remaining erythrocytes lysed using 0.2% NaCl for 30 sec before restoring isotonicity by the addition of 1.2% NaCl. This step was repeated until the cell pellet appears relatively free of red blood cells. Cells were resuspended in DPBS (Dulbecco's Phosphate Buffered Saline) (w.o. Ca^2+, Mg^2+) and the concentration adjusted to 1.4×10^6 cells/ml in HBSS (Hanks Balanced Salt solution) (w Ca^2+, Mg^2+) containing 0.1% BSA (Bovine Serum Albumin) and 5 mM glucose just prior to assay initiation. Titrated reference and test compounds were pre-mixed with HE (Hydroethidine) (10 μM final assay concentration) before addition to 96-well plates containing 2.5×10^5 cells. Following 40 min incubation at RT, changes in the respiratory burst was estimated by measuring fluorescence at 579 nm (excitation: 485 nm) using an Envision plate reader.
as §1, with “(5×10^−7” for “(1.5×10^−7”, “bottom. Abs EC50 is the concentration of test compound that provokes a response corresponding to 50% of the maximal effect associated with the positive control (5×10^−7 M PEP0005).” for “bottom.”

[4] = 6 h, read-out: HeKa cytokine release (IL-8) Rel EC50 range
[5] = 30 min at 37° C., PrestoBlue, normalized to 4 10^−4 M PEP0005/ingenol mebutate
[6] = 6 h at 37° C., normalized to positive control 1.5×10^−7 M PEP0005, read-out: HeKa cytokine release (IL-8) Rel EC50 range
[7] = 40 min incubation at RT, normalized to positive control 5×10^−7 M PEP0005

Work on CNc1cccc(Cl)c1C(=O)O[C@H]1C(C)=C[C@]23C(=O)[C@@H](C=C(CO)[C@@H](O)[C@]12O)[C@H]1[C@@H](C[C@H]3C)C1(C)C [Compound 342, Ingenol 3-(2-chloro-6-methylamino-benzoate)] yielded an EC50 [1] of less than 150000 nM, an EC50 [2, 4] of less than 20 nM and an EC50 [3] of 20 to 100 nM.

C/C=C(/C)C(=O)O[C@H]1C(C)=C[C@]23C(=O)[C@@H](C=C(CO)[C@@H](O)[C@]12O)[C@H]1[C@@H](C[C@H]3C)C1(C)C [Ingenol-3-angelate, reference compound] showed an EC50 [1, 5] of 150000 to 350000 nM, an EC50 [2, 6] of less than 20 nM and an EC50 [3, 7] of less than 20 nM.

CC1=C[C@]23C(=O)[C@@H](C=C(CO)[C@@H](O)[C@]2(O)[C@H]1OC(=O)c1c(C)cccc1N)[C@H]1[C@@H](C[C@H]3C)C1(C)C [Compound 335, Ingenol 3-(2-amino-6-methyl-benzoate)] was tested, and the EC50 [1] was less than 150000 nM, the EC50 [2, 4] was less than 20 nM and the EC50 [3] was less than 20 nM.

CC1=C[C@]23C(=O)[C@@H](C=C(CO)[C@@H](O)[C@]2(O)[C@H]1OC(=O)c1ccc(F)cc1)[C@H]1[C@@H](C[C@H]3C)C1(C)C [Compound 311, Ingenol 3-(4-fluoro-benzoate)] was tested, and the EC50 [1] was less than 150000 nM, the EC50 [2, 4] was less than 20 nM and the EC50 [3] was less than 20 nM.

CC1=C[C@]23C(=O)[C@@H](C=C(CO)[C@@H](O)[C@]2(O)[C@H]1OC(=O)c1ccccc1Oc1ccccc1)[C@H]1[C@@H](C[C@H]3C)C1(C)C [Compound 322, Ingenol 3-(2-phenoxy-benzoate)] showed an EC50 [1] of less than 150000 nM, an EC50 [2, 4] of less than 20 nM and an EC50 [3] of less than 20 nM.

CC1=C[C@]23C(=O)[C@@H](C=C(CO)[C@@H](O)[C@]2(O)[C@H]1OC(=O)c1ccccc1C(C)C)[C@H]1[C@@H](C[C@H]3C)C1(C)C [Compound 323, Ingenol 3-(2-isopropyl-benzoate)] showed an EC50 [1] of less than 150000 nM, an EC50 [2, 4] of less than 20 nM and an EC50 [3] of less than 20 nM.

For CC1=C[C@]23C(=O)[C@@H](C=C(CO)[C@@H](O)[C@]2(O)[C@H]1OC(=O)c1c(C)cc(C)cc1C)[C@H]1[C@@H](C[C@H]3C)C1(C)C [Compound 325, Ingenol 3-(2,4,6-trimethyl-benzoate)], the EC50 [1] was less than 150000 nM, the EC50 [2, 4] was less than 20 nM and the EC50 [3] was less than 20 nM.

CNc1cccc(C)c1C(=O)O[C@H]1C(C)=C[C@]23C(=O)[C@@H](C=C(CO)[C@@H](O)[C@]12O)[C@H]1[C@@H](C[C@H]3C)C1(C)C [Compound 339, Ingenol 3-(2-methyl-6-methylamino-benzoate)] gave an EC50 [1] of less than 150000 nM, an EC50 [2, 4] of less than 20 nM and an EC50 [3] of 20 to 100 nM.

COc1ccccc1C(=O)O[C@H]1C(C)=C[C@]23C(=O)[C@@H](C=C(CO)[C@@H](O)[C@]12O)[C@H]1[C@@H](C[C@H]3C)C1(C)C [Compound 312, Ingenol 3-(2-methoxy-benzoate)] was tested, and the EC50 [1] was less than 150000 nM, the EC50 [2, 4] was 20 to 100 nM and the EC50 [3] was less than 20 nM.

In the case of CC1=C[C@]23C(=O)[C@@H](C=C(CO)[C@@H](O)[C@]2(O)[C@H]1OC(=O)c1ccc(F)cc1F)[C@H]1[C@@H](C[C@H]3C)C1(C)C [Compound 314, Ingenol 3-(2,4-difluoro-benzoate)], the EC50 [1] is reported as less than 150000 nM, the EC50 [2, 4] is reported as less than 20 nM and the EC50 [3] is reported as less than 20 nM.

COc1cccc(OC)c1C(=O)O[C@H]1C(C)=C[C@]23C(=O)[C@@H](C=C(CO)[C@@H](O)[C@]12O)[C@H]1[C@@H](C[C@H]3C)C1(C)C [Compound 316, Ingenol 3-(2,6-dimethoxy-benzoate)] was tested, and the EC50 [1] was 150000 to 350000 nM, the EC50 [2, 4] was 20 to 100 nM and the EC50 [3] was 20 to 100 nM.

For CC1=C[C@]23C(=O)[C@@H](C=C(CO)[C@@H](O)[C@]2(O)[C@H]1OC(=O)c1ccccc1NCc1ccccc1)[C@H]1[C@@H](C[C@H]3C)C1(C)C [Compound 331, Ingenol 3-(2-benzylamino-benzoate)], the EC50 [1] was less than 150000 nM, the EC50 [2, 4] was less than 20 nM and the EC50 [3] was less than 20 nM.

Compound CC1=C[C@]23C(=O)[C@@H](C=C(CO)[C@@H](O)[C@]2(O)[C@H]1OC(=O)c1ccccc1N)[C@H]1[C@@H](C[C@H]3C)C1(C)C [Compound 330, Ingenol 3-(2-amino-benzoate)] has an EC50 [1, 5] of 150000 to 350000 nM, an EC50 [2, 6] of less than 20 nM and an EC50 [3, 7] of less than 20 nM.

Work on CC1=C[C@]23C(=O)[C@@H](C=C(CO)[C@@H](O)[C@]2(O)[C@H]1OC(=O)C1=C(C)CCCC1(C)C)[C@H]1[C@@H](C[C@H]3C)C1(C)C [Compound 345, Ingenol 3-(2,6,6-trimethylcyclohexene-1-carboxylate)] yielded an EC50 [1] of less than 150000 nM, an EC50 [2, 4] of less than 20 nM and an EC50 [3] of less than 20 nM.

Compound CC1=C[C@]23C(=O)[C@@H](C=C(CO)[C@@H](O)[C@]2(O)[C@H]1OC(=O)c1ccccc1Nc1ccccc1)[C@H]1[C@@H](C[C@H]3C)C1(C)C [Compound 336, Ingenol 3-(2-phenylamino-benzoate)] has an EC50 [1] of less than 150000 nM, an EC50 [2, 4] of less than 20 nM and an EC50 [3] of less than 20 nM.

Compound CC1=C[C@]23C(=O)[C@@H](C=C(CO)[C@@H](O)[C@]2(O)[C@H]1OC(=O)c1cccc2ccccc12)[C@H]1[C@@H](C[C@H]3C)C1(C)C [Compound 319, Ingenol 3-(naphthalene-1-carboxylate)] has an EC50 [1] of less than 150000 nM, an EC50 [2, 4] of less than 20 nM and an EC50 [3] of less than 20 nM.

For CC1=C[C@]23C(=O)[C@@H](C=C(CO)[C@@H](O)[C@]2(O)[C@H]1OC(=O)c1c(C)cccc1NCc1ccccc1)[C@H]1[C@@H](C[C@H]3C)C1(C)C [Compound 332, Ingenol 3-(2-benzylamino-6-methyl-benzoate)], the EC50 [1] was less than 150000 nM, the EC50 [2, 4] was less than 20 nM and the EC50 [3] was 20 to 100 nM.

With CC1=C[C@]23C(=O)[C@@H](C=C(CO)[C@@H](O)[C@]2(O)[C@H]1OC(=O)c1c(C)cccc1C)[C@H]1[C@@H](C[C@H]3C)C1(C)C [Compound 315, Ingenol 3-(2,6-dimethyl-benzoate)] the EC50 [1] was less than 150000 nM, the EC50 [2, 4] was 20 to 100 nM and the EC50 [3] was less than 20 nM.

CC1=C[C@]23C(=O)[C@@H](C=C(CO)[C@@H](O)[C@]2(O)[C@H]1OC(=O)c1c(N)cccc1Cl)[C@H]1[C@@H](C[C@H]3C)C1(C)C [Compound 340, Ingenol 3-(2-amino-6-chloro-benzoate)] gave an EC50 [1] of less than 150000 nM, an EC50 [2, 4] of 20 to 100 nM and an EC50 [3] of less than 20 nM.
